The subject of series [1] is BV-2. As to the kind of experiment: Anti-neuroinflammatory activity in mouse BV-2 cells assessed as inhibition of LPS-stimulated IL-6 production at 2.5 ug/ml measured after 24 hrs by ELISA. It is filed as functional. Particulars: dose 2.5 µg/ml. Also noted: scale not given: the % may be the effect or the level left. Background: An ELISA detects its analyte on a solid surface through an enzyme-linked reagent.

The nature of series [2]: Cytotoxicity against mouse BV-2 cells assessed as survival rate at 2.5 ug/ml incubated for 24 hrs by MTT assay. Format: toxicity, cell-based. The settings on record: at 2.5 µg/mL, read-out: Activity. (Formazan colour is commonly taken as a measure of viable cells.)
In series [3] the test system is BV-2. As to the kind of experiment: Anti-neuroinflammatory activity in mouse BV-2 cells assessed as inhibition of LPS-stimulated TNF-alpha production at 2.5 ug/ml measured after 24 hrs by ELISA. It is filed as functional. Particulars: dose 2.5 µg/ml. Details: scale not given: the % may be the effect or the level left.
In series [4] the test system is BV-2. Nature of the series: Neuroprotective activity against LPS-induced mouse BV-2 cell death assessed as reversal of apoptosis at 5 uM and measured after 24 hrs by Annexin V-FITC/PI staining based flow cytometry method (reference value: 91.6%). Format: functional. A general note: A flow cytometer gives signals particle by particle.
The subject of series [5] is BV-2. As to the kind of experiment: Anti-neuroinflammatory activity in mouse BV-2 cells assessed as inhibition of LPS-induced caspase-1 expression level at 1.25 to 5 ug/ml and measured after 24 hrs by western blot analysis. Format: functional, cell-based. Particulars: dose 1.25-5 µg/ml, DDE = dose-dependent effect.
Series [6] relates to BV-2. Nature of the series: Anti-neuroinflammatory activity in mouse BV-2 cells assessed as inhibition of LPS-induced ASC expression level at 1.25 to 5 ug/ml and measured after 24 hrs by western blot analysis. Format: functional, cell-based. Particulars: dose 1.25-5 µg/ml, DDE = dose-dependent effect.
The subject of series [7] is BV-2. Nature of the series: Anti-neuroinflammatory activity in mouse BV-2 cells assessed as inhibition of LPS-induced NLRP3 expression level at 1.25 to 5 ug/ml and measured after 24 hrs by western blot analysis. It is filed as functional, cell-based. The settings on record: dose 1.25-5 µg/ml, DDE = dose-dependent effect.
Series [8] relates to BV-2. Nature of the series: Neuroprotective activity against LPS-induced mouse BV-2 cell death assessed as late apoptotic cells at 2.5 uM and measured after 24 hrs by Annexin V-FITC/PI staining based flow cytometry method (reference value: 0%). Format: functional.
Series [9] relates to BV-2. As to the kind of experiment: Neuroprotective activity against LPS-induced mouse BV-2 cell death assessed as reversal of apoptosis at 2.5 uM and measured after 24 hrs by Annexin V-FITC/PI staining based flow cytometry method (reference value: 91.6%). Format: functional.
The subject of series [10] is BV-2. As to the kind of experiment: Neuroprotective activity against LPS-induced mouse BV-2 cell death assessed as late apoptotic cells at 5 uM and measured after 24 hrs by Annexin V-FITC/PI staining based flow cytometry method (reference value: 0%). It is filed as functional.
The test system of series [11] is BV-2. Nature of the series: Anti-neuroinflammatory activity in mouse BV-2 cells assessed as reduction of LPS-stimulated IkappaBalpha phosphorylation level at 1.25 to 5 ug/ml and measured after 24 hrs by westernblot analysis. It is filed as functional, cell-based. The settings on record: dose 1.25-5 µg/ml, DDE = dose-dependent effect.

Structures are written as SMILES.

`COc1cncc(-c2nc(N)nc3c2CCc2ccc(Br)cc2-3)c1`: the Activity in the series on BV-2 [1] worked out at 43.3%; in the series with BV-2 [3], 49.4%. The viability at 24 h, 2.5 ug/ml in series [2] worked out at 93.2%.

Take `COc1cncc(/C=C2\CCc3ccc(OC)cc3C2=O)c1`: the Activity is listed as 43.7% in the series on BV-2 [1] and 29.7% in the series on BV-2 [3]. Further, in series [2], the viability at 24 h, 2.5 ug/ml was determined as 92.3%.

For the molecule `COc1ccc2c(c1)C(=O)/C(=C/c1cccc(OC)n1)CC2`, the Activity in the series on BV-2 [1] is recorded as 54%; in the series on BV-2 [3], 40.6%. Moreover, the viability at 24 h, 2.5 ug/ml in series [2] came out at 90.4%.

For the molecule `COc1cccc(/C=C2\CCc3ccc(Br)cc3C2=O)n1`, the Activity is 44.9% in the series with BV-2 [1] and 31.9% in the series on BV-2 [3]. Besides, in series [2], the viability at 24 h, 2.5 ug/ml was 94.7%.

In the case of `COc1cccc(-c2nc(N)nc3c2CCc2ccc(Br)cc2-3)n1`, the Activity was found to be 55.8% in the series with BV-2 [1] and 44.8% in the series on BV-2 [3]. Moreover, in [2], the viability at 24 h, 2.5 ug/ml was 88.9%.

As for `COc1ccc2c(c1)-c1nc(N)nc(-c3ccc(OC)cc3C(F)(F)F)c1CC2`, the Activity is listed as 54.3% in the series on BV-2 [1] and 38.2% with BV-2 [3]. In addition, in series [2], the viability at 24 h, 2.5 ug/ml was found to be 89.9%.

Regarding `COc1cccc(-c2nc(N)nc3c2CCc2ccc(F)cc2-3)c1`, the values for the Activity with BV-2 [1] and in the series on BV-2 [3] were 66.6% and 53.8%, respectively. Also, the viability at 24 h, 2.5 ug/ml in series [2] amounted to 95%.

With `COc1ccc2c(c1)-c1nc(N)nc(-c3ccc(OC)c(C(F)(F)F)c3)c1CC2`, the Activity was determined as 44.2% with BV-2 [1] and 46.7% in the series with BV-2 [3]. Also, the viability at 24 h, 2.5 ug/ml in series [2] was found to be 90.3%.

Consider `S=C(S)N1CCCC1` [PYRROLIDINE DITHIOCARBAMATE], for which the Activity came to 64% with BV-2 [1] and 55.9% with BV-2 [3].

Turning to `COc1cncc(/C=C2\CCc3ccc(Br)cc3C2=O)c1`, the values for the Activity in the series with BV-2 [1] and with BV-2 [3] were 47% and 35.9%, respectively. Further, the viability at 24 h, 2.5 ug/ml in [2] was found to be 94.9%.

In the case of `COc1ccc2c(c1)C(=O)/C(=C/c1ccc(OC)cc1C(F)(F)F)CC2`, the figures for the Activity with BV-2 [1] and in the series with BV-2 [3] were 44.9% and 40%, respectively. Also, the viability at 24 h, 2.5 ug/ml in [2] turned out to be 88.3%.

On to `COc1cncc(-c2nc(N)nc3c2CCc2ccc(F)cc2-3)c1`, for which the Activity is 80.2% with BV-2 [1]; 70.7% with BV-2 [4]; “Dde” in the series on BV-2 [5]; “Dde” in the series on BV-2 [6]; “Dde” in the series with BV-2 [7]; 30.7% in the series with BV-2 [8]. Moreover, the Activity was 54.8% in the series on BV-2 [9], 13% with BV-2 [10], “Dde” in the series with BV-2 [11] and 60.8% in the series with BV-2 [3]. For the same molecule, the viability at 24 h, 2.5 ug/ml in series [2] came out at 97.4%.

`COc1cc(-c2nc(N)nc3c2CCc2ccc(Br)cc2-3)cc(OC)c1OC`: the figures for the Activity with BV-2 [1] and with BV-2 [3] were 43.7% and 39.9%, respectively. Moreover, in series [2], the viability at 24 h, 2.5 ug/ml was 93.1%.

Turning to `COc1cccc(-c2nc(N)nc3c2CCc2ccc(F)cc2-3)n1`, the Activity with BV-2 [1] worked out at 66.9%; in the series with BV-2 [3], 50.3%. The viability at 24 h, 2.5 ug/ml in series [2] came to 95.4%.

As to `COc1ccc2c(c1)C(=O)/C(=C/c1ccc(OC)nc1)CC2`, the Activity with BV-2 [1] was found to be 45%; with BV-2 [3] it was 23.8%. For the same molecule, in series [2], the viability at 24 h, 2.5 ug/ml stood at 93.1%.

As for `COc1cc(/C=C2\CCc3ccc(F)cc3C2=O)cc(OC)c1`, the figures for the Activity in the series with BV-2 [1] and with BV-2 [3] were 46.1% and 40.8%, respectively. Also, the viability at 24 h, 2.5 ug/ml in series [2] was found to be 87.8%.

As to `COc1ccc(/C=C2\CCc3ccc(F)cc3C2=O)cc1C(F)(F)F`, the Activity in the series on BV-2 [1] was found to be 42.3%; with BV-2 [3], 38.6%. Moreover, the viability at 24 h, 2.5 ug/ml in series [2] is 94.7%.

Take `COc1cncc(/C=C2\CCc3ccc(F)cc3C2=O)c1`: the Activity came to 46.4% in the series with BV-2 [1] and 33.3% in the series with BV-2 [3]. For the same molecule, in series [2], the viability at 24 h, 2.5 ug/ml was determined as 94.4%.

With `COc1ccc(-c2nc(N)nc3c2CCc2ccc(F)cc2-3)cc1C(F)(F)F`, the Activity in the series on BV-2 [1] is on record as 43%; in the series on BV-2 [3], 42.4%. Further, in [2], the viability at 24 h, 2.5 ug/ml is 91%.

As to `COc1cncc(-c2nc(N)nc3c2CCc2ccc(OC)cc2-3)c1`, the Activity in the series with BV-2 [1] is 53.8%; in the series with BV-2 [3], 47.3%. Further, in series [2], the viability at 24 h, 2.5 ug/ml worked out at 94.7%.

Take `COc1cc(/C=C2\CCc3ccc(Br)cc3C2=O)cc(OC)c1OC`: the Activity in the series with BV-2 [1] turned out to be 35.9%; in the series on BV-2 [3], 33.1%. In addition, in [2], the viability at 24 h, 2.5 ug/ml was 93.5%.

`COc1ccc(-c2nc(N)nc3c2CCc2ccc(F)cc2-3)cn1`: the Activity was found to be 43.9% in the series on BV-2 [1] and 43.3% in the series with BV-2 [3]. Besides, the viability at 24 h, 2.5 ug/ml in [2] amounted to 89.6%.

Take `COc1ccc(/C=C2\CCc3ccc(Br)cc3C2=O)cn1`: the Activity in the series with BV-2 [1] is listed as 45.5%; with BV-2 [3], 32.5%. The viability at 24 h, 2.5 ug/ml in series [2] came to 89.5%.

Turning to `COc1cccc(/C=C2\CCc3ccc(F)cc3C2=O)c1`, the Activity in the series with BV-2 [1] is listed as 35.2%; in the series on BV-2 [3], 34%. The viability at 24 h, 2.5 ug/ml in series [2] worked out at 90.3%.

For `COc1cc(OC)cc(-c2nc(N)nc3c2CCc2ccc(F)cc2-3)c1`, the Activity in the series on BV-2 [1] was 51.7%; with BV-2 [3], 45.3%. In addition, the viability at 24 h, 2.5 ug/ml in [2] was determined as 95.4%.

`COc1ccc2c(c1)-c1nc(N)nc(-c3cccc(OC)n3)c1CC2`: the results for the Activity in the series on BV-2 [1] and with BV-2 [3] were 44.1% and 44.9%, respectively. For the same molecule, in series [2], the viability at 24 h, 2.5 ug/ml came out at 94.8%.

As for `COc1cccc(/C=C2\CCc3ccc(F)cc3C2=O)n1`, the Activity was 61.1% in the series on BV-2 [1] and 41.7% in the series with BV-2 [3]. Further, in [2], the viability at 24 h, 2.5 ug/ml worked out at 85.8%.

In the case of `COc1ccc(/C=C2\CCc3ccc(F)cc3C2=O)cn1`, the Activity was 47% in the series with BV-2 [1] and 34.3% in the series on BV-2 [3]. Besides, the viability at 24 h, 2.5 ug/ml in series [2] stood at 92.7%.

As to `COc1ccc2c(c1)-c1nc(N)nc(-c3ccc(OC)nc3)c1CC2`, the values for the Activity in the series on BV-2 [1] and in the series with BV-2 [3] were 43.7% and 42.7%, respectively. Also, in series [2], the viability at 24 h, 2.5 ug/ml was 87.5%.

Turning to `COc1ccc2c(c1)C(=O)/C(=C/c1ccc(OC)c(C(F)(F)F)c1)CC2`, the results for the Activity in the series on BV-2 [1] and in the series with BV-2 [3] were 44.4% and 32.8%, respectively. Also, the viability at 24 h, 2.5 ug/ml in [2] was determined as 94.4%.

Consider `COc1ccc(-c2nc(N)nc3c2CCc2ccc(Br)cc2-3)cn1`, for which the results for the Activity with BV-2 [1] and with BV-2 [3] were 40.6% and 43.8%, respectively. Moreover, the viability at 24 h, 2.5 ug/ml in series [2] was determined as 95.4%.

(Values after ChEMBL document CHEMBL5154834, “Anti-neuroinflammatory effects of novel 5,6-dihydrobenzo[h]quinazolin-2-amine derivatives in lipopolysaccharide-stimulated BV2 microglial cells” (Eur J Med Chem, 2022).)
